Measured values taken from US6455541B1, “Suppression, by 5-lipoxygenase inhibitors, of bone resorption” (Board of Regents, The University of Texas System, priority 1994, dated 2002).
“And” between values parts separate entries of the source, which are not always exact repeats. Equal values may be shown once. “Also recorded” adds a separate entry of the source. Read-outs that look alike come from different tables or passages of the source.

What was measured:
[1] = system: isolated 23C6(+) human giant cells of bone; experiment: TRAP activity in isolated human giant cells; type: cell-based
Description: (§1) Osteoclast TRAP activity was measured using fluorescence spectroscopy as described by Chambers et al. (1987) with minor modifications. In brief, media from osteoclast cultures were harvested and stored at −70° C. until ready for assay.
(§2) The cells were washed with phosphate-buffered saline and harvested in 0.5 ml of Triton X-100 (0.05%, w/v). Aliquots of media or lysate 30 μl) were incubated with 170 μl of 2 mM methylumbelliferyl phosphate, pH 5.0, in 0.48 M acetate buffer (0.48 M sodium acetate, 0.48 M acetic acid, pH 5.0) and 30 mM tartaric acid. Samples were incubated for 30 min at 37° C. and the reaction terminated with 100 μl of stop solution containing 50 mM glycine, 50 mM EDTA, pH 10.4. Fluorescence was measured at excitation 360 nm and emission 448 nm using a fluorimeter (Fluoroskan, Flow Instruments). Enzyme activity was expressed as micromoles of methylumbelliferyl phosphate hydrolyzed/min/μg of protein and the protein content measured by the technique of Lowry et al. (1951).
Human giant cell tumors (normally discarded after surgery) were minced and passed through 1#40SS wire mesh screen, allowed to settle for 5 min, and the cell suspension above the sediment collected. […]

[2] = system: isolated 23C6+ human giant cells; experiment: Pit formation by isolated human giant cells on sperm whale dentine; type: cell-based
Description: (§3) Quantitation of the effects of isolated osteoclasts on calcified matrices was determined using minor modifications of the disaggregated osteoclast resorption assay as described by Boyde et al. (1984). Sperm whale dentine (0.25×7×7 mm) was prepared using a Buehler low speed diamond saw (Buehler, Lake Bluff, Ill.) followed by sonication (15 min) in several changes of distilled water. Slices were sterilized using ultraviolet light.
(§4) Osteoclasts were stained for TRAP and counted and then pit numbers were counted following toluidine blue (0.1% w/v) staining by light microscopy. The plan area of matrix resorbed was quantitated using a computer-assisted morphometric program on a Bioquant System IV analysis system (R & M Biometrics, Nashville, Tenn.).
Human giant cell tumors (normally discarded after surgery) were minced and passed through 1#40SS wire mesh screen, allowed to settle for 5 min, and the cell suspension above the sediment collected. The cells were incubated with 23C6 monoclonal antibody that identifies the osteoclast vitronectin receptor (generously provided by Dr. Michael Horton) (1:10 dilution of hybridoma supernatant/10^6 cells) at 4° C. in serum-free medium for 30 min, after which immunomagnetic beads coated with anti-mouse IgG (Dynabead, Dynal, Inc., Great Neck, N.Y.) were added to the cell suspension. […]

isolated rat osteoclasts = experiment: Disaggregated rat osteoclast pit formation assay on sperm whale dentine; type: cell-based
Description: as §3
Neonatal Sprague-Dawley rats (2-3 days) were sacrificed by decapitation, the femurs and tibias were removed, scraped free of adherent tissue, and trimmed free of the epiphyses. The bones from one litter were combined and quickly minced using a scalpel blade in 2 ml of 199 medium and then vigorously mixed with a pipette in an 8-ml tube, allowed to settle for 10 s, and then 100 μl of the suspension was added to each well for a total of 16 wells in a 48-well microtiter plate containing sperm whale dentine (approximately four neonates are used per 16 wells). The cells were incubated at 37° C. for 30 min at which time the dentine was removed, washed in media, and placed in a fresh 48-well plate containing 250 μl of test medium.
as §4
Quantitation of the effects of isolated neonatal rat osteoclasts on calcified matrices was determined using minor modifications of the disaggregated osteoclast resorption assay as described by Boyde et al (1984). Briefly rat osteoclasts isolated as described by Chambers et al. (1983) were dispersed on prewetted (AMEM plus 5% FBS) slices of sperm whale dentine. Cultures were performed in 48 well-microtiter plates in humidified air (10% CO2) at 37° C. in αMEM medium (one slice/well in 200 μl medium). Numbers of osteoclasts and resorption lacunae were quantitated as described above for the avian osteoclasts.

neonatal mouse calvariae = experiment: Neonatal mouse (murine) calvarial assay, 45Ca release; type: cell-based
Description: The assay was performed as described by Gowen et al. (1983). Timed pregnant mice were injected with ^45Ca 2 days before parturition. Half-calvaria were removed from the 1-2-day-old pups and preincubated for 24 h in BGJb medium at 37° C. in a humidified atmosphere of 5% CO2 before transfer to fresh media with or without test substances for 48 h. The bones were incubated for a further 72 h and media and bones collected. Bone-resorbing activity was expressed as the percentage of the total ^45Ca released into the medium.

[3] = system: isolated avian osteoclasts; experiment: TRAP activity in isolated avian osteoclasts; type: cell-based, Gallus domesticus
Description: Avian osteoclasts were isolated from medullary bone of laying White Leghorn hens Gallus domesticus (Pioneer Animal Supply, Kingswheel, Ohio) as described previously by Zambonin-Zallone and Teti (1981). In brief, bone marrow suspensions from the medullary bone of femora were filtered through Nytex cloth (110 μm, t'etko, Elmsford, N.Y.), centrifuged for 5 min at 1200 rpm, and the cell pellet resuspended in 0.2% NaCl for 3 min to lyse erythrocytes. After layering the cells on 100% fetal bovine serum for 1 h, sedimented cells were further filtered through Nytex filters (55 μm). Cells were harvested, resuspended in α-minimal Eagle's medium (GIBCO) containing 10 fetal bovine serum, with penicillin (100 units/ml), streptomycin (100 μg/ml), and Ara-C, to inhibit proliferation of nonosteoclastic cells. Cells were plated in 24- or 48-well plates (Costar, Cambridge, Mass.) at 1×10^4 cells/well and incubated at 37° C. in 10% CO2 humidified air for 48 h, after which they were washed to remove nonadherent cells. When matured osteoclasts were observed experiments were begun and terminated within 48 h.
as §1, §2

C433 cells [4] = experiment: Radioimmunoassay of 5-HETE in C433-conditioned media; type: cell-based, human; details: +1,25-(OH)2 vitamin D3 10^−8 M, duplicate
Description: The radioimmunoassays for 5-HETE were purchased from Advanced Magnetics, Inc. (Cambridge, Mass.).
(§5) C433 cells were grown in 10% fetal bovine serum (Whittaker, Walkersville, Md.) 50% RPMI, 50% McCoys (Flow, McLean, Va.) until a density of 10^4 cells/ml was obtained, at which time the cells were harvested, washed, […] This conditioned medium was applied to a prewetted C18 Sep-Pak (Millipore, Waters, Milford, Mass.), and bound material was extracted using ethyl acetate. This material was dried under nitrogen and resuspended in water, it acetic acid and analyzed by high pressure measure liquid chromatography (HPLC) (Waters, Milford, Mass.) applied to a C8 semipreparative 25 cm×10 mm reverse phase column (Keystone Scientific, Inc., Bellefonte, Pa.) at 2 ml/min. The gradient was 0-100% methanol, 1% acetic acid over 60 min with 6-ml fractions collected. The fractions were dried under nitrogen, and those fractions to be assayed for osteoclast stimulating activity were stabilized with 20 μl of 10% bovine serum albumin. Fractions to be used for gas chromatography-mass spectrometric analysis were prepared for derivatization.
To confirm that C433-conditioned medium contained these 5-LO metabolites and that production was hormonally regulated, radioimmunoassays were performed for 5-HETE using commercially available kits. […]

C433 cells [5] = experiment: Production of osteoclast-stimulating activity by C433 cells (conditioned medium bioassayed for TRAP in avian osteoclasts); type: cell-based, human; details: flurbiprofen 10^−5 M; indomethacin 10^−6 M; nordihydroguaiaretic acid 10^−6, 10^−5 or 10^−4 M
Description: FIG. 3A, FIG. 3B, FIG. 3C and FIG. 3D. Chemical characterization of activity. FIG. 3A. C433-conditioned medium was treated with ultraviolet-light (UV) for 24 h or placed in a boiling water bath (100° C.) for 15 min and bioassayed. FIG. 3B. amino peptidase M (A), carboxypeptidase (C), or Pronase-CB (P) were incubated in the presence of C433-conditioned medium for 12 h at 37° C. FIG. 3C. […] The resultant conditioned medium was bioassayed for activity. FIG. 3D. […] Conditioned medium was bioassayed for induction of TRAP activity in avian osteoclasts.
as §5, with “washed, and placed in serum-free DMEM plus 10^−8 M, 1,25-(OH)2D3 for 48 h before harvest of conditioned medium.” for “washed,”

[6] = Lymphotoxin 5 × 10^−9M + NDGA 10^−5M

5-hydroxyeicosatetraenoic acid [5-HETE]
stimulation of TRAP activity in human giant cells (in words) [1]: stimulated TRAP activity | stimulation of TRAP activity ([1]; 10^−10 M, 48 h): maximally stimulated | pit formation by human giant cells (in words) [2]: caused pit formation | pit formation by isolated rat osteoclasts (in words) (isolated rat osteoclasts): caused pit formation | stimulation of bone resorption in neonatal mouse calvariae (in words) (neonatal mouse calvariae): stimulated bone resorption | stimulation of TRAP activity in avian osteoclasts (in words) [3]: stimulated TRAP activity | concentration of optimal stimulation of TRAP activity ([3]; 10^−8 M stimulates suboptimally): 10^−10 M | stimulation of TRAP activity ([3]; 10^−10 M, 48 h): maximally stimulated

C=C1/C(=C\C=C2/CCC[C@]3(C)[C@@H]([C@H](C)CCCC(C)(C)O)CC[C@@H]23)C[C@@H](O)C[C@@H]1O [1,25D3, 1,25 dihydroxyvitamin D3]
45Ca release, factor alone (Table IV) (neonatal mouse calvariae; 1,25D3 10^−10M, IL-1 1 × 10^−10M): 37.2% | 45Ca release, Factor alone (Table II) (neonatal mouse calvariae; IL-1 5 × 10^−10M, TNF 2 × 10^−10M, Lymphotoxin 5 × 10^−9M, PTH 4 ng/ml, 1,25D3 10^−10M): 35.3% and 31.8% and 37.0% | 5-HETE in C433-conditioned media (C433 cells [4]; 6 h): 3.36 pg/mL and 3.53 pg/mL | 5-HETE in C433-conditioned media (C433 cells [4]; 12 h): 11.07 pg/mL and 11.68 pg/mL

CCCCC/C=C\C\C=C/C=C/C=C/[C@@H](SC[C@H](NC(=O)CC[C@H](N)C(=O)O)C(=O)NCC(=O)O)[C@@H](O)CCCC(=O)O [LTC4, leukotriene C4]
stimulation of pit formation ([2]; 10^−10 M): stimulated

CC(Cc1ccc(O)c(O)c1)C(C)Cc1ccc(O)c(O)c1 (stereo not drawn) [NDGA, nordihydroguaiaretic acid]
inhibition of PTH and PTHrP-induced bone resorption (isolated rat osteoclasts; NDGA 10^−6M, MK886 1 μg/ml, ZM 230,487 10 ng/ml, 20 hours): inhibition of the bone resorption was seen | order of inhibitory effectiveness (isolated rat osteoclasts; PTH and PTHrP-induced bone resorption, NDGA 10^−6M, MK886 1 μg/ml, ZM 230,487 10 ng/ml): ZM230487>MK886>NDGA | inhibition of 1,25(OH)2 vitamin D3-induced bone resorption (in words) (neonatal mouse calvariae; 1,25(OH)2 vitamin D3 as factor): no significance was observed | 45Ca release, Factor + NDGA (neonatal mouse calvariae; 1,25D3 10^−10M + NDGA 10^−5M): 31.7% and 29.2% and 32.5% | % Inhibition (neonatal mouse calvariae; 1,25D3 10^−10M + NDGA 10^−5M): 19.8% and 24.1% | Ca^45 Release, LPS + NDGA (neonatal mouse calvariae; AAY4 LPS 25 μg/ml + NDGA 10^−5M): 13.6% | 45Ca release, LPS + NDGA (neonatal mouse calvariae; AaY4 LPS 50 μg/ml + NDGA 10^−5M): 22.2% | inhibition of LPS-induced bone resorption (in words) (neonatal mouse calvariae; AaY4 LPS and/or WR14 LPS): significantly inhibited; also recorded: Significant inhibition | 45Ca release, Factor + NDGA (neonatal mouse calvariae; IL-1 5 × 10^−10M + NDGA 10^−5M): 23.4% and 24.6% | % Inhibition (neonatal mouse calvariae; IL-1 5 × 10^−10M + NDGA 10^−5M): 32.8% | inhibition of IL-1-induced bone resorption (in words) (neonatal mouse calvariae; IL-1 as factor): significantly inhibits | 45Ca release, Factor + NDGA (neonatal mouse calvariae; [6]): 26.8% and 35.5% | % Inhibition (neonatal mouse calvariae; [6]): 31.7% | inhibition at 10 µM (neonatal mouse calvariae; Mus musculus, 1,25D3 10^−10M + NDGA 10^−5M, read-out: % Inhibition): 19.6% | inhibition at 10 µM (neonatal mouse calvariae; Mus musculus, AAY4 LPS 25 μg/ml + NDGA 10^−5M, read-out: % Inhibition): 120% | inhibition at 10 µM (neonatal mouse calvariae; Mus musculus, AaY4 LPS 50 μg/ml + NDGA 10^−5M, read-out: % Inhibition): 57.2% | inhibition at 10 µM (neonatal mouse calvariae; Mus musculus, IL-1 5 × 10^−10M + NDGA 10^−5M, read-out: % Inhibition): 30% | inhibition at 10 µM (neonatal mouse calvariae; Mus musculus, Lymphotoxin 5 × 10^−9M + NDGA 10^−5M): 48.8% | inhibition at 10 µM (neonatal mouse calvariae; Mus musculus, TNF 2 × 10^−10M + NDGA 10^−5M, read-out: % Inhibition): 43.2% | inhibition at 10 µM (neonatal mouse calvariae; Mus musculus, WR14 LPS 50 ng/ml + NDGA 10^−5M, read-out: % Inhibition): 57.6% | 45Ca release, Factor + NDGA (neonatal mouse calvariae; PTH 4 ng/ml + NDGA 10^−5M): 30.6% and 31.2% and 28.6% | inhibition of PTH-induced bone resorption (in words) (neonatal mouse calvariae; PTH as factor): One out of three experiments showed significant inhibition | 45Ca release, Factor + NDGA (neonatal mouse calvariae; TNF 2 × 10^−10M + NDGA 10^−5M): 27.8% and 31.9% | % Inhibition (neonatal mouse calvariae; TNF 2 × 10^−10M + NDGA 10^−5M): 33.5% | inhibition of TNF-induced bone resorption (in words) (neonatal mouse calvariae; TNF as factor): significantly inhibits | % Inhibition (neonatal mouse calvariae; WR14 LPS 50 ng/ml + NDGA 10^−5M): 40.8% | inhibition of lymphotoxin-induced bone resorption (in words) (neonatal mouse calvariae; lymphotoxin as factor): significantly inhibits | NDGA inhibition of lipopolysaccharide-induced bone resorption (neonatal mouse calvariae; two different preparations of lipopolysaccharide): Greater than 50% | effect on production of C433 activity (C433 cells [5]): completely blocked
